Data: US8217048B2, “Inhibitors of serine proteases, particularly HCV NS3-NS4A protease” (Vertex Pharmaceuticals Incorporated, priority 2003, dated 2012)

Legend:
[1] = tested on: Cells containing hepatitis C virus (HCV) replicon; assay: HCV Replicon Cell Assay (Example 4); format: cell-based; details: 48 h, tested according to Example 4 (cell), 50% inhibition of HCV RNA level, 48-hour incubation
Method: HCV Replicon Cell Assay Protocol
Cells containing hepatitis C virus (HCV) replicon were maintained in DMEM containing 10% fetal bovine serum (FBS), 0.25 mg per ml of G418, with appropriate supplements (media A).
On day 1, replicon cell monolayer was treated with a trypsin:EDTA mixture, removed, and then media A was diluted into a final concentration of 100,000 cells per ml wit. 10,000 cells in 100 ul were plated into each well of a 96-well tissue culture plate, and cultured overnight in a tissue culture incubator at 37° C.
On day 2, compounds (in 100% DMSO) were serially diluted into DMEM containing 2% FBS, 0.5% DMSO, with appropriate supplements (media B). The final concentration of DMSO was maintained at 0.5% throughout the dilution series.
Media on the replicon cell monolayer was removed, and then media B containing various concentrations of compounds was added. Media B without any compound was added to other wells as no compound controls.
Cells were incubated with compound or 0.5% DMSO in media B for 48 hours in a tissue culture incubator at 37° C. At the end of the 48-hour incubation, the media was removed, and the replicon cell monolayer was washed once with PBS and stored at −80° C. prior to RNA extraction.
Culture plates with treated replicon cell monolayers were thawed, and a fixed amount of another RNA virus, such as Bovine Viral Diarrhea Virus (BVDV) was added to cells in each well, RNA extraction reagents (such as reagents from RNeasy kits) were added to the cells immediately to avoid degradation of RNA. Total RNA was extracted according the instruction of manufacturer with modification to improve extraction efficiency and consistency. Finally, total cellular RNA, including HCV replicon RNA, was eluted and stored at −80° C. until further processing.
A Taqman real-time RT-PCR quantification assay was set up with two sets of specific primers and probe. One was for HCV and the other was for BVDV. Total RNA extractants from treated HCV replicon cells was added to the PCR reactions for quantification of both HCV and BVDV RNA in the same PCR well. Experimental failure was flagged and rejected based on the level of BVDV RNA in each well. The level of HCV RNA in each well was calculated according to a standard curve run in the same PCR plate. The percentage of inhibition or decrease of HCV RNA level due to compound treatment was calculated using the DMSO or no compound control as 0% of inhibition. The IC50 (concentration at which 50% inhibition of HCV RNA level is observed) was calculated from the titration curve of any given compound.

HCV NS3-NS4A protease = molecular target: T1, HCV NS3-NS4A protease (Hepatitis C virus genotype 1a, UniProt P27958); assay: HCV Ki Assay (enzyme, Example 5); format: biochemical; details: Ki values, tested according to Example 5 (enzyme); 5AB substrate, tNS3 with KK4A
T1 construct: The buffer, KK4A, DTT, and tNS3 were combined
Method: HPLC Microbore Method for Separation of 5AB Substrate and Products
NH2-Glu-Asp-Val-Val-(alpha)Abu-Cys-Ser-Met-Ser-Tyr-COOH
A stock solution of 20 mM 5AB (or concentration of your choice) was made in DMSO w/0.2M DTT. This was stored in aliquots at −20 C.
Buffer: 50 mM HEPES, pH 7.8; 20% glycerol; 100 mM NaCl
Total assay volume was 100 μL
The buffer, KK4A, DTT, and tNS3 were combined; distributed 78 μL each into wells of 96 well plate. This was incubated at 30 C for ˜5-10 min.
2.5 μL of appropriate concentration of test compound was dissolved in DMSO (DMSO only for control) and added to each well. This was incubated at room temperature for 15 min.
Initiated reaction by addition of 20 μL of 250 μM 5AB substrate (25 μM concentration is equivalent or slightly lower than the Km for 5AB).
Incubated for 20 min at 30 C.
Terminated reaction by addition of 25 μL of 10% TFA
Transferred 120 μL aliquots to HPLC vials
Separated SMSY product from substrate and KK4A by the following method:
Microbore Separation Method:
Instrumentation: Agilent 1100
Column thermostated chamber G1316A
Diode array detector G1315A
Solvent A=HPLC grade water+0.1% TFA
Solvent B=HPLC grade acetonitrile+0.1% TFA
Stop time: 17 min Post-run time: 10 min.

T1 sequence (P27958 1658-1711): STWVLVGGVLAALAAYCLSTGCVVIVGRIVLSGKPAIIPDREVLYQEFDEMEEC
T1 sequence (P27958 1027-1208): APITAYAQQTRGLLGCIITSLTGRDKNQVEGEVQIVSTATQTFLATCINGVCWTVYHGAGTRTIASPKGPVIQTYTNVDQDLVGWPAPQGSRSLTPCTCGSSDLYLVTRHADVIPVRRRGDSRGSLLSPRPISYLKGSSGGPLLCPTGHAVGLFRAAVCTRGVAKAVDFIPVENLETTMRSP

SMILES | IC50 [1] | Ki (HCV NS3-NS4A protease)
CCC[C@H](NC(=O)[C@@H]1C[C@@H](Oc2cccc(F)c2)CN1C(=O)[C@@H](NC(=O)[C@@H](NC(=O)c1cnccn1)C1CCCCC1)C(C)(C)C)C(=O)C(=O)NC1CC1 [Compound 18] | < 500 nM | 100 to 300 nM
CCC[C@H](NC(=O)[C@@H]1C[C@@H](Oc2ccc([N+](=O)[O-])cn2)CN1C(=O)[C@@H](NC(=O)[C@@H](NC(=O)c1cnccn1)C1CCCCC1)C(C)(C)C)C(=O)C(=O)NC1CC1 [Compound 26] | < 500 nM | 100 to 300 nM
CCC[C@H](NC(=O)[C@@H]1C[C@@H](Oc2cccc3ccccc23)CN1C(=O)[C@@H](NC(=O)[C@@H](NC(=O)c1cnccn1)C1CCCCC1)C(C)(C)C)C(=O)C(=O)NC1CC1 [Compound 36] | < 500 nM | < 100 nM
CCC[C@H](NC(=O)[C@@H]1C[C@@H](Oc2cccc(C(=O)NC)c2)CN1C(=O)[C@@H](NC(=O)[C@@H](NC(=O)c1cnccn1)C1CCCCC1)C(C)(C)C)C(=O)C(=O)NC1CC1 [Compound 46] | < 500 nM | < 100 nM
CCC[C@H](NC(=O)C1C[C@@H](Oc2cc(Cl)ccc2Cl)CN1C(=O)[C@@H](NC(=O)[C@@H](NC(=O)c1cnccn1)C1CCCCC1)C(C)(C)C)C(=O)C(=O)NC1CC1 (some centres unmarked) [Compound 3] | 500 to 1000 nM | 100 to 300 nM
CCC[C@H](NC(=O)[C@@H]1C[C@@H](Oc2nc(C(F)(F)F)nc3ccccc23)CN1C(=O)[C@@H](NC(=O)[C@@H](NC(=O)c1cnccn1)C1CCCCC1)C(C)(C)C)C(=O)C(=O)NC1CC1 [Compound 60] | > 1000 nM | 100 to 300 nM
CCC[C@H](NC(=O)[C@@H]1C[C@@H](Oc2ccc([N+](=O)[O-])cc2)CN1C(=O)[C@@H](NC(=O)[C@@H](NC(=O)c1cnccn1)C1CCCCC1)C(C)(C)C)C(=O)C(=O)NC1CC1 [Compound 44] | < 500 nM | < 100 nM
CCC[C@H](NC(=O)[C@@H]1C[C@@H](Oc2ccc(Cl)cc2)CN1C(=O)[C@@H](NC(=O)[C@@H](NC(=O)c1cnccn1)C1CCCCC1)C(C)(C)C)C(=O)C(=O)NC1CC1 [Compound 56] | < 500 nM | < 100 nM
CCC[C@H](NC(=O)[C@@H]1C[C@@H](Oc2ccccn2)CN1C(=O)[C@@H](NC(=O)[C@@H](NC(=O)c1cnccn1)C1CCCCC1)C(C)(C)C)C(=O)C(=O)NC1CC1 [Compound 58] | < 500 nM | < 100 nM
CCC[C@H](NC(=O)C1C[C@@H](Oc2cc(C(F)(F)F)cc(C(F)(F)F)c2)CN1C(=O)[C@@H](NC(=O)[C@@H](NC(=O)c1cnccn1)C1CCCCC1)C(C)(C)C)C(=O)C(=O)NC1CC1 (some centres unmarked) [Compound 11] | > 1000 nM | > 300 nM
